{
  "source": "patent US20260034227A1",
  "about": "“AZLACTONE-BASED POLYMERS AS A SCAFFOLD FOR DIVERSE APPLICATIONS IN DRUG AND GENE DELIVERY” (University of Mississippi, priority 2022, published 2026)",
  "assay": "Pharmacokinetics of DBAC generated from polymer-drug conjugate (UPLC-MS/MS)",
  "assay_type": "in vivo, CD-1 mice",
  "settings": "CD1 mice; for F: oral relative to intravenous, 10 mg/kg",
  "description": "UPLC-MS/MS. Chromatography was performed on an AcquityTM UPLC system (Waters Corp, Milford, MA) with an autosampler temperature at 10° C. Waters Acquity UPLC® BEH Phenyl column (3.0×50 mm, 1.7 μm particle size) was used for chromatographic separation with linear gradient elution consisting of (A) 90% acetonitrile and (B) 10% of 0.2% formic acid in Milli-Q water as mobile phases. The flow rate was set at 0.30 mL/min, and the injection volume was 2 μL. An Acquity Tandem Quadrupole Mass Detector (Xevo TQ-S; Waters Corp, Milford, MA) in positive electrospray ionization mode was used for mass spectrometric detection. For collision-induced dissociation, argon was used as collision gas. The cone voltage and collision energy were set at 40 V and 24 V for DBAC and 40 V and 26 V for the tolbutamide (IS), respectively. Quantification was performed using the monitoring of multiple reaction monitoring (MRM) of following transitions: m/z 276/186 for DBAC and m/z 271/90.9 for IS. […] Pharmacokinetics of […]. All procedures were performed in compliance with the University of Mississippi Animal Care and Use Committee and following the National Institutes of Health (NIH) guidelines. […] Either DBAC or […] were administered at 10 mg/kg through oral gavage or retro-orbital IV injection at a volume of 0.1 mL. The vehicle for DBAC was 10% absolute alcohol, 10% cremophor and 80% Milli-Q water, whereas the […] polymer was administered in 100% PBS. […] Blood was collected by cardiac puncture and stored in K2 EDTA tubes (SAI Infusion Technologies, #MVCB-E-300). Mice were then perfused through heart with PBS (Life Technologies, #10-010-072). Plasma was harvested by centrifuging the blood using Eppendorf […] Centrifuge (Germany) at 5,000 rpm for 5 min and stored frozen at -80±10° C. until analysis. […] Sample preparation for DBAC detection. A simple protein precipitation method was followed for extraction of DBAC from mice plasma. To an aliquot of 50 μL of plasma or tissue (GI tract, heart, lung, spleen, liver or kidney) samples, tolbutamide (internal standard, IS) solution (5 μL of 20 ng/ml) was added and mixed for 15 s on a cyclomixer (Thermo Scientific, IN, USA). After precipitation with 500 μL of acetonitrile, the mixture was vortexed for 2 min, followed by centrifugation for 10 min at 14,000 rpm on an accuSpin Micro 17R (Fisher Scientific, USA) at 5° C. An aliquot of 150 μL of clear supernatant was transferred into vials and 2 μL was injected into the UPLC-MS/MS system for analysis. The primary stock solutions of DBAC and tolbutamide (IS) were prepared in methanol at 1.0 mg/mL concentration. Working solutions of calibration standards and quality control (QC) samples were prepared by dilution with methanol and stored at -20° C. A working stock of the IS solution (20 ng/ml) was prepared in methanol and stored at -20° C.",
  "key": {"[1]": {"settings": "GI tract, intravenous 10 mg/kg conjugate"}, "[2]": {"settings": "GI tract, oral 10 mg/kg conjugate"}, "[3]": {"settings": "Heart, intravenous 10 mg/kg conjugate"}, "[4]": {"settings": "Kidney, intravenous 10 mg/kg conjugate"}, "[5]": {"settings": "Kidney, oral 10 mg/kg conjugate"}, "[6]": {"settings": "Liver, intravenous 10 mg/kg conjugate"}, "[7]": {"settings": "Lung, intravenous 10 mg/kg conjugate"}, "[8]": {"settings": "Plasma, intravenous 10 mg/kg conjugate"}, "[9]": {"settings": "Plasma, oral 10 mg/kg conjugate"}, "[10]": {"settings": "Spleen, intravenous 10 mg/kg conjugate"}},
  "data": [
    {"substance": "N-(2-hydroxyethyl)-N,N-dimethyl-2-oxo-2-(2-oxo-2H-chromen-3-yl)ethanaminium [DBAC]", "values": [
      {"measurement": "AUC0-α", "setting": "[1]", "result": "18544 ± 156", "unit": "ng·h/g"},
      {"measurement": "CO", "setting": "[1]", "result": "4899 ± 1104", "unit": "ng/g"},
      {"measurement": "t1/2", "setting": "[1]", "result": "6.97 ± 1.03", "unit": "h"},
      {"measurement": "AUC0-α", "setting": "[2]", "result": "95643 ± 1023", "unit": "ng·h/g"},
      {"measurement": "Tmax", "setting": "[2]", "result": "1.25 ± 0.53", "unit": "h"},
      {"measurement": "F", "setting": "GI tract", "result": ">100 ± 47.5", "unit": "%"},
      {"measurement": "AUC0-α", "setting": "[3]", "result": "8914 ± 512", "unit": "ng·h/g"},
      {"measurement": "CO", "setting": "[3]", "result": "4961 ± 715", "unit": "ng/g"},
      {"measurement": "t1/2", "setting": "[3]", "result": "2.20 ± 0.78", "unit": "h"},
      {"measurement": "AUC0-α", "setting": "Heart, oral 10 mg/kg conjugate", "result": "1008 ± 95.6", "unit": "ng·h/g"},
      {"measurement": "Tmax", "setting": "Heart, oral 10 mg/kg conjugate", "result": "4.38 ± 0.53", "unit": "h"},
      {"measurement": "F", "setting": "Heart", "result": "11.3 ± 2.57", "unit": "%"},
      {"measurement": "AUC0-α", "setting": "[4]", "result": "10575 ± 1910", "unit": "ng·h/g"},
      {"measurement": "CO", "setting": "[4]", "result": "41296 ± 2103", "unit": "ng/g"},
      {"measurement": "t1/2", "setting": "[4]", "result": "3.49 ± 0.59", "unit": "h"},
      {"measurement": "AUC0-α", "setting": "[5]", "result": "490 ± 101", "unit": "ng·h/g"},
      {"measurement": "Tmax", "setting": "[5]", "result": "0.50 ± 0.00", "unit": "h"},
      {"measurement": "F", "setting": "Kidney", "result": "4.64 ± 2.59", "unit": "%"},
      {"measurement": "AUC0-α", "setting": "[6]", "result": "17457 ± 3832", "unit": "ng·h/g"},
      {"measurement": "CO", "setting": "[6]", "result": "36898 ± 2501", "unit": "ng/g"},
      {"measurement": "t1/2", "setting": "[6]", "result": "2.24 ± 0.37", "unit": "h"},
      {"measurement": "AUC0-α", "setting": "Liver, oral 10 mg/kg conjugate", "result": "1464 ± 346", "unit": "ng·h/g"},
      {"measurement": "Tmax", "setting": "Liver, oral 10 mg/kg conjugate", "result": "0.63 ± 0.25", "unit": "h"},
      {"measurement": "F", "setting": "Liver", "result": "8.38 ± 1.98", "unit": "%"},
      {"measurement": "AUC0-α", "setting": "[7]", "result": "1772 ± 141", "unit": "ng·h/g"},
      {"measurement": "CO", "setting": "[7]", "result": "1326 ± 202", "unit": "ng/g"},
      {"measurement": "t1/2", "setting": "[7]", "result": "3.73 ± 0.47", "unit": "h"},
      {"measurement": "AUC0-α", "setting": "Lung, oral 10 mg/kg conjugate", "result": "1315 ± 85.6", "unit": "ng·h/g"},
      {"measurement": "Tmax", "setting": "Lung, oral 10 mg/kg conjugate", "result": "1.25 ± 0.68", "unit": "h"},
      {"measurement": "F", "setting": "Lung", "result": "74.2 ± 25.3", "unit": "%"},
      {"measurement": "AUC0-α", "setting": "[8]", "result": "1586 ± 125", "unit": "ng·h/mL"},
      {"measurement": "CO", "setting": "[8]", "result": "7216 ± 1023", "unit": "ng/mL"},
      {"measurement": "t1/2", "setting": "[8]", "result": "1.09 ± 0.12", "unit": "h"},
      {"measurement": "AUC0-α", "setting": "[9]", "result": "120 ± 65.0", "unit": "ng·h/mL"},
      {"measurement": "Cmax", "setting": "[9]", "result": "119 ± 25.3", "unit": "ng/mL"},
      {"measurement": "Tmax", "setting": "[9]", "result": "0.75 ± 0.29", "unit": "h"},
      {"measurement": "F", "setting": "Plasma", "result": "7.59 ± 2.48", "unit": "%"},
      {"measurement": "AUC0-α", "setting": "[10]", "result": "1089 ± 124", "unit": "ng·h/g"},
      {"measurement": "CO", "setting": "[10]", "result": "1026 ± 248", "unit": "ng/g"},
      {"measurement": "t1/2", "setting": "[10]", "result": "2.27 ± 0.55", "unit": "h"}
    ]}
  ]
}
